Drawing on PubChem BioAssay AID330 (DTP/NCI, 2004), this text covers T/C for 21 compounds.

Several values for one entry are separate records, joined by “and”; a condition that tells them apart may be missing. Equal values may be shown once. Inconclusive results and toxic doses are left out.

The subject of this test is P388 leukemia ip, CD2F1 mice, survival T/C. The test can be described thus: NCI In Vivo Anticancer Drug Screen. Data for tumor model P388 Leukemia (intraperitoneal) in CD2F1 (CDF1) mice. Conditions: endpoint: median survival time, higher = longer survival. Put shortly: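 Mice carrying the transplanted tumor received test compound or vehicle. Survival was recorded in each group, and the value is the treated-group measurement divided by that of the vehicle-treated control group.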

Setting [1] is: dose: 25.0 mg/kg/injection, schedule: Q04DX002 (ip), vehicle: saline with Tween-80.
The mark [2] stands for this setting: dose: 50.0 mg/kg/injection, schedule: Q04DX002 (ip), vehicle: saline with Tween-80.
Setting [3] is: dose: 50.0 mg/kg/injection, schedule: Q01DX005 (ip), vehicle: saline with Tween-80.
Where [4] appears, read: dose: 100.0 mg/kg/injection, schedule: Q01DX005 (ip), vehicle: saline with Tween-80.
The mark [5] stands for this setting: dose: 200.0 mg/kg/injection, schedule: Q01DX005 (ip), vehicle: saline with Tween-80.
Where [6] appears, read: dose: 25.0 mg/kg/injection, schedule: Q01DX005 (ip), vehicle: saline with Tween-80.
[7] abbreviates: dose: 100.0 mg/kg/injection, schedule: Q04DX002 (ip), vehicle: saline with Tween-80.

With `COc1cc([C@@H]2c3cc4c(cc3C[C@@H]3COC(=O)[C@H]32)OCO4)cc(OC)c1OC`, the T/C is 86 % of control (dose: 12.5 mg/kg/injection, schedule: Q04DX002 (ip), vehicle: saline with Tween-80); 96 % of control under setting [1]; 106 % of control under setting [2].
Regarding `N#CNC(c1ccccc1)(c1ccccc1)c1ccccc1`, the T/C under setting [3] was 98 % of control, the T/C under setting [4] was 98 % of control and the T/C under setting [5] is 94 % of control.
Turning to `COc1ccc(OC)c(CCc2cc(OC)ccc2OC)c1`, the T/C was 88 % of control (dose: 0.78 mg/kg/injection, schedule: Q01DX009 (ip), vehicle: DMSO); 92 % of control (dose: 6.25 mg/kg/injection, schedule: Q01DX009 (ip), vehicle: DMSO); 94 % of control (dose: 25.0 mg/kg/injection, schedule: Q01DX009 (ip), vehicle: DMSO); 109 % of control (dose: 50.0 mg/kg/injection, schedule: Q01DX009 (ip), vehicle: DMSO).
Turning to `OCC(O)C(Cl)CCl` (configuration not stated), the T/C is 101 % of control (dose: 60.0 mg/kg/injection, schedule: Q01DX005 (ip), vehicle: saline); 100 % of control (dose: 120.0 mg/kg/injection, schedule: Q01DX005 (ip), vehicle: saline); 86 % of control (dose: 240.0 mg/kg/injection, schedule: Q01DX005 (ip), vehicle: saline).
`C=CC(C)(Cl)C(Cl)/C=C/C(C=O)=C/Cl` (configuration not stated): the T/C was 101 % of control (dose: 1.75 mg/kg/injection, schedule: Q01DX009 (ip), vehicle: Klucel (hydroxypropylcellulose) (HPC)); 100 % of control (dose: 3.5 mg/kg/injection, schedule: Q01DX009 (ip), vehicle: Klucel (hydroxypropylcellulose) (HPC)); 101 % of control (dose: 7.0 mg/kg/injection, schedule: Q01DX009 (ip), vehicle: Klucel (hydroxypropylcellulose) (HPC)); 100 % of control (dose: 14.0 mg/kg/injection, schedule: Q01DX009 (ip), vehicle: Klucel (hydroxypropylcellulose) (HPC)).
For the compound `O=C(O)CSC(=O)NCCCCCCNC(=O)Nc1ccccc1`, the T/C was 104 % of control under setting [3], 105 % of control under setting [4] and 112 % of control under setting [5].
With `S=c1[nH]nc2nc3c4ccccc4c4ccccc4c3nn12`, the T/C is, setting by setting: (dose: 50.0 mg/kg/injection, schedule: Q04DX003 (ip), vehicle: saline) 95 % of control; (dose: 100.0 mg/kg/injection, schedule: Q04DX003 (ip), vehicle: saline) 95 % of control; (dose: 200.0 mg/kg/injection, schedule: Q04DX003 (ip), vehicle: saline) 93 % of control.
Take `CC12CCC3C(CCC4=CC(OC5OCC(O)C(O)C5O)CCC43C=O)C1(O)CCC2C1=CC(=O)OC1` (configuration not stated): the T/C is 99 % of control (dose: 1.0 mg/kg/injection, schedule: Q01DX009 (ip), vehicle: Klucel (hydroxypropylcellulose) (HPC)); 105 % of control (dose: 2.0 mg/kg/injection, schedule: Q01DX009 (ip), vehicle: Klucel (hydroxypropylcellulose) (HPC)); 97 % of control (dose: 4.0 mg/kg/injection, schedule: Q01DX009 (ip), vehicle: Klucel (hydroxypropylcellulose) (HPC)); 108 % of control (dose: 8.0 mg/kg/injection, schedule: Q01DX009 (ip), vehicle: Klucel (hydroxypropylcellulose) (HPC)).
For the compound `CC1(C)Cc2nn3c(c2C(=O)O1)CC(c1ccccc1)c1ccccc1-3` (configuration not stated), the T/C runs as follows: (dose: 100.0 mg/kg/injection, schedule: Q01DX001 (ip), vehicle: saline with Tween-80) 90 % of control; (dose: 200.0 mg/kg/injection, schedule: Q01DX001 (ip), vehicle: saline with Tween-80) 89 % of control; (dose: 400.0 mg/kg/injection, schedule: Q01DX001 (ip), vehicle: saline with Tween-80) 96 % of control.
In the case of `Oc1[nH]c2ccccc2c1N=Nc1nnc(-c2ccccc2)c(-c2ccccc2)n1`, the T/C by setting is: under setting [3], 95 % of control; under setting [4], 107 % of control; under setting [5], 101 % of control.
Consider `COCCCn1nnc2ccccc2c1=O`, for which the T/C was 105 % of control (dose: 25.0 mg/kg/injection, schedule: Q01DX009 (ip), vehicle: other); 100 % of control (dose: 50.0 mg/kg/injection, schedule: Q01DX009 (ip), vehicle: other); 104 % of control (dose: 100.0 mg/kg/injection, schedule: Q01DX009 (ip), vehicle: other); 106 % of control (dose: 200.0 mg/kg/injection, schedule: Q01DX009 (ip), vehicle: other).
For `Cc1ccc(Sc2cccc3c(C)c4cccc5c4c(c23)C[S+]5c2ccc(C)cc2)cc1` (configuration not stated), the T/C was 104 % of control (dose: 2.0 mg/kg/injection, schedule: Q01DX009 (ip), vehicle: saline with Tween-80) and 122 % of control (dose: 3.0 mg/kg/injection, schedule: Q01DX009 (ip), vehicle: saline with Tween-80).
Take `NC(=O)c1[nH]cnc1O`: the T/C was 114 % of control (dose: 12.5 mg/kg/injection, schedule: Q01DX005 (ip), vehicle: saline with Tween-80); 107 % of control under setting [6]; 108 % of control and 123 % of control under setting [3]; 114 % of control and 123 % of control under setting [4]; 100 % of control under setting [7]; 123 % of control under setting [5]. The T/C (dose: 200.0 mg/kg/injection, schedule: Q04DX002 (ip), vehicle: saline with Tween-80) is 110 % of control.
Take `C[C@]12CC[C@H](O)CC1=CC[C@@H]1[C@@H]2CC[C@]2(C)C(=O)CC[C@@H]12`: the T/C by setting is: under setting [6], 94 % of control; under setting [3], 90 % of control; under setting [4], 91 % of control; under setting [5], 90 % of control.
As to `O=C(N/N=C/c1ccccn1)N/N=C/c1ccccn1`, the T/C was 102 % of control (dose: 12.5 mg/kg/injection, schedule: Q01DX009 (ip), vehicle: distilled water + Tween-80); 103 % of control (dose: 25.0 mg/kg/injection, schedule: Q01DX009 (ip), vehicle: distilled water + Tween-80); 113 % of control (dose: 50.0 mg/kg/injection, schedule: Q01DX009 (ip), vehicle: distilled water + Tween-80); 104 % of control (dose: 100.0 mg/kg/injection, schedule: Q01DX009 (ip), vehicle: distilled water + Tween-80).
`C=C(C)CC(N)C(=O)O` (configuration not stated): the T/C is 103 % of control (dose: 50.0 mg/kg/injection, schedule: Q01DX005 (ip), vehicle: saline); 100 % of control (dose: 100.0 mg/kg/injection, schedule: Q01DX005 (ip), vehicle: saline); 99 % of control (dose: 200.0 mg/kg/injection, schedule: Q01DX005 (ip), vehicle: saline).
As to `CN=C(N)N/N=C(\C)c1ccc(Cl)c(Cl)c1`, the T/C by setting is: under setting [1], 100 % of control; under setting [2], 99 % of control.
Consider `N#Cc1nc2c(nc1N)CCCCCCCCCC2`, for which the T/C reads like this: (dose: 25.0 mg/kg/injection, schedule: Q01DX009 (ip), vehicle: Klucel (hydroxypropylcellulose) (HPC)) 94 % of control; (dose: 50.0 mg/kg/injection, schedule: Q01DX009 (ip), vehicle: Klucel (hydroxypropylcellulose) (HPC)) 94 % of control; (dose: 100.0 mg/kg/injection, schedule: Q01DX009 (ip), vehicle: Klucel (hydroxypropylcellulose) (HPC)) 92 % of control; (dose: 200.0 mg/kg/injection, schedule: Q01DX009 (ip), vehicle: Klucel (hydroxypropylcellulose) (HPC)) 100 % of control.
For the compound `Cc1cc(O)c(C(c2ccc(C#N)cc2)c2c(O)cc(C)[nH]c2=O)c(=O)[nH]1`, the T/C is, setting by setting: (dose: 50.0 mg/kg/injection, schedule: Q01DX009 (ip), vehicle: saline with Tween-80) 95 % of control; (dose: 100.0 mg/kg/injection, schedule: Q01DX009 (ip), vehicle: saline with Tween-80) 94 % of control; (dose: 200.0 mg/kg/injection, schedule: Q01DX009 (ip), vehicle: saline with Tween-80) 98 % of control.
Take `COc1ccc2c(c1)CCC1C2CCC2(C)C1CCC2(O)CCN` (configuration not stated): the T/C (dose: 25.0 mg/kg/injection, schedule: Q04DX002 (ip), vehicle: saline) was 100 % of control; the T/C (dose: 50.0 mg/kg/injection, schedule: Q04DX002 (ip), vehicle: saline) is 101 % of control; the T/C (dose: 100.0 mg/kg/injection, schedule: Q04DX002 (ip), vehicle: saline) was 104 % of control.
In the case of `CN=C(N)N/N=C(\C)c1ccc2oc3ccc(/C(C)=N/NC(N)=NC)cc3c2c1`, the T/C reads like this: under setting [1], 150 % of control; under setting [2], 150 % of control; under setting [7], 154 % of control.
